Reference: US8192962B2, “Processes for detecting toxic substances” (Daikin Industries, Ltd., priority 2001, dated 2012)

Test system: Energy system protein genes
Assay: DNA chip mRNA expression in yeast, energy system protein genes (Table 4)
Type: cell-based, Saccharomyces cerevisiae S288C
How it was run: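 In this screen, yeast in logarithmic growth are challenged for two hours with a toxic substance at a non-lethal inhibitory concentration. Their mRNA, converted to Cy3- or Cy5-labeled cDNA, hybridizes at 65° C. to a chip spanning every yeast gene, and expression is expressed as a ratio to untreated cells.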

Q: With `CCCCC[C@H](O)CC(=O)CCc1ccc(O)c(OC)c1` [(13), gingerol] as the compound, how does the “The level of expressed mRNA in the presence of chemical substance/The level of expressed mRNA in the absence of chemical substance” value (yeast gene YIR031C, cells incubated two hours with the chemical substance) read?
A: 1.0

Q: What about the “The level of expressed mRNA in the presence of chemical substance/The level of expressed mRNA in the absence of chemical substance” value (yeast gene YJL045W, cells incubated two hours with the chemical substance) of the same compound?
A: 1.6

Q: And the “The level of expressed mRNA in the presence of chemical substance/The level of expressed mRNA in the absence of chemical substance” value (yeast gene YJL121C, cells incubated two hours with the chemical substance)?
A: 0.7

Q: What about the “The level of expressed mRNA in the presence of chemical substance/The level of expressed mRNA in the absence of chemical substance” value (yeast gene YJL216C, cells incubated two hours with the chemical substance) of the same compound?
A: 1.1

Q: And the “The level of expressed mRNA in the presence of chemical substance/The level of expressed mRNA in the absence of chemical substance” value (yeast gene YJR048W)?
A: 0.4

Q: What about the “The level of expressed mRNA in the presence of chemical substance/The level of expressed mRNA in the absence of chemical substance” value (yeast gene YJR121W, cells incubated two hours with the chemical substance) of the same compound?
A: 1.0

Q: What about the “The level of expressed mRNA in the presence of chemical substance/The level of expressed mRNA in the absence of chemical substance” value (yeast gene YKL035W) of the same compound?
A: 2.0

Q: And the “The level of expressed mRNA in the presence of chemical substance/The level of expressed mRNA in the absence of chemical substance” value (yeast gene YKL060C, cells incubated two hours with the chemical substance)?
A: 1.2

Q: What about the “The level of expressed mRNA in the presence of chemical substance/The level of expressed mRNA in the absence of chemical substance” value (yeast gene YKL085W, cells incubated two hours with the chemical substance) of the same compound?
A: 1.5

Q: And the “The level of expressed mRNA in the presence of chemical substance/The level of expressed mRNA in the absence of chemical substance” value (yeast gene YKL150W)?
A: 1.8

Q: What about the “The level of expressed mRNA in the presence of chemical substance/The level of expressed mRNA in the absence of chemical substance” value (yeast gene YKR058W, cells incubated two hours with the chemical substance, 25° C., YPD medium) of the same compound?
A: 0.7

Q: And the “The level of expressed mRNA in the presence of chemical substance/The level of expressed mRNA in the absence of chemical substance” value (yeast gene YLL041C, cells incubated two hours with the chemical substance)?
A: 1.0

Q: And the “The level of expressed mRNA in the presence of chemical substance/The level of expressed mRNA in the absence of chemical substance” value (yeast gene YLR164W, cells incubated two hours with the chemical substance)?
A: 1.0

Q: And the “The level of expressed mRNA in the presence of chemical substance/The level of expressed mRNA in the absence of chemical substance” value (yeast gene YLR273C)?
A: 1.7

Q: And the “The level of expressed mRNA in the presence of chemical substance/The level of expressed mRNA in the absence of chemical substance” value (yeast gene YLR354C, cells incubated two hours with the chemical substance)?
A: 1.0

Q: What about the “The level of expressed mRNA in the presence of chemical substance/The level of expressed mRNA in the absence of chemical substance” value (yeast gene YML054C) of the same compound?
A: 2.8

Q: What about the “The level of expressed mRNA in the presence of chemical substance/The level of expressed mRNA in the absence of chemical substance” value (yeast gene YML087C) of the same compound?
A: 1.5

Q: And the “The level of expressed mRNA in the presence of chemical substance/The level of expressed mRNA in the absence of chemical substance” value (yeast gene YML100W)?
A: 3.8

Q: What about the “The level of expressed mRNA in the presence of chemical substance/The level of expressed mRNA in the absence of chemical substance” value (yeast gene YML120C, cells incubated two hours with the chemical substance) of the same compound?
A: 1.2

Q: What about the “The level of expressed mRNA in the presence of chemical substance/The level of expressed mRNA in the absence of chemical substance” value (yeast gene YML125C) of the same compound?
A: 2.2

Q: What about the “The level of expressed mRNA in the presence of chemical substance/The level of expressed mRNA in the absence of chemical substance” value (yeast gene YML129C, cells incubated two hours with the chemical substance) of the same compound?
A: 1.0

Q: And the “The level of expressed mRNA in the presence of chemical substance/The level of expressed mRNA in the absence of chemical substance” value (yeast gene YMR073C, cells incubated two hours with the chemical substance)?
A: 1.2

Q: What about the “The level of expressed mRNA in the presence of chemical substance/The level of expressed mRNA in the absence of chemical substance” value (yeast gene YMR089C) of the same compound?
A: 2.3

Q: What about the “The level of expressed mRNA in the presence of chemical substance/The level of expressed mRNA in the absence of chemical substance” value (yeast gene YMR105C) of the same compound?
A: 3.3

Q: What about the “The level of expressed mRNA in the presence of chemical substance/The level of expressed mRNA in the absence of chemical substance” value (yeast gene YMR205C, cells incubated two hours with the chemical substance) of the same compound?
A: 1.3

Q: What about the “The level of expressed mRNA in the presence of chemical substance/The level of expressed mRNA in the absence of chemical substance” value (yeast gene YMR261C, cells incubated two hours with the chemical substance) of the same compound?
A: 1.6

Q: And the “The level of expressed mRNA in the presence of chemical substance/The level of expressed mRNA in the absence of chemical substance” value (yeast gene YMR267W, cells incubated two hours with the chemical substance, 25° C., YPD medium)?
A: 0.7

Q: What about the “The level of expressed mRNA in the presence of chemical substance/The level of expressed mRNA in the absence of chemical substance” value (yeast gene YNL037C) of the same compound?
A: 1.9

Q: And the “The level of expressed mRNA in the presence of chemical substance/The level of expressed mRNA in the absence of chemical substance” value (yeast gene YNL071W)?
A: 2.5

Q: What about the “The level of expressed mRNA in the presence of chemical substance/The level of expressed mRNA in the absence of chemical substance” value (yeast gene YNL237W) of the same compound?
A: 3.2

Q: What about the “The level of expressed mRNA in the presence of chemical substance/The level of expressed mRNA in the absence of chemical substance” value (yeast gene YNL331C) of the same compound?
A: 3.1

Q: And the “The level of expressed mRNA in the presence of chemical substance/The level of expressed mRNA in the absence of chemical substance” value (yeast gene YOL126C)?
A: 2.6

Q: And the “The level of expressed mRNA in the presence of chemical substance/The level of expressed mRNA in the absence of chemical substance” value (yeast gene YOL157C)?
A: 1.4

Q: And the “The level of expressed mRNA in the presence of chemical substance/The level of expressed mRNA in the absence of chemical substance” value (yeast gene YOL165C)?
A: 3.7

Q: What about the “The level of expressed mRNA in the presence of chemical substance/The level of expressed mRNA in the absence of chemical substance” value (yeast gene YOR136W) of the same compound?
A: 1.5

Q: What about the “The level of expressed mRNA in the presence of chemical substance/The level of expressed mRNA in the absence of chemical substance” value (yeast gene YOR178C, cells incubated two hours with the chemical substance) of the same compound?
A: 1.0

Q: And the “The level of expressed mRNA in the presence of chemical substance/The level of expressed mRNA in the absence of chemical substance” value (yeast gene YOR221C)?
A: 1.0

Q: What about the “The level of expressed mRNA in the presence of chemical substance/The level of expressed mRNA in the absence of chemical substance” value (yeast gene YOR347C) of the same compound?
A: 1.8

Q: And the “The level of expressed mRNA in the presence of chemical substance/The level of expressed mRNA in the absence of chemical substance” value (yeast gene YOR388C, cells incubated two hours with the chemical substance)?
A: 1.1

Q: And the “The level of expressed mRNA in the presence of chemical substance/The level of expressed mRNA in the absence of chemical substance” value (yeast gene YPL031C, cells incubated two hours with the chemical substance)?
A: 1.6

Q: What about the “The level of expressed mRNA in the presence of chemical substance/The level of expressed mRNA in the absence of chemical substance” value (yeast gene YPL061W, cells incubated two hours with the chemical substance) of the same compound?
A: 1.1

Q: And the “The level of expressed mRNA in the presence of chemical substance/The level of expressed mRNA in the absence of chemical substance” value (yeast gene YPL171C)?
A: 2.4

Q: And the “The level of expressed mRNA in the presence of chemical substance/The level of expressed mRNA in the absence of chemical substance” value (yeast gene YPL240C)?
A: 2.9

Q: What about the “The level of expressed mRNA in the presence of chemical substance/The level of expressed mRNA in the absence of chemical substance” value (yeast gene YPL271W) of the same compound?
A: 1.2

Q: And the “The level of expressed mRNA in the presence of chemical substance/The level of expressed mRNA in the absence of chemical substance” value (yeast gene YPL275W, cells incubated two hours with the chemical substance)?
A: 1.0

Q: And the “The level of expressed mRNA in the presence of chemical substance/The level of expressed mRNA in the absence of chemical substance” value (yeast gene YPR006C)?
A: 1.8

Q: And the “The level of expressed mRNA in the presence of chemical substance/The level of expressed mRNA in the absence of chemical substance” value (yeast gene YPR026W)?
A: 2.3

Q: What about the “The level of expressed mRNA in the presence of chemical substance/The level of expressed mRNA in the absence of chemical substance” value (yeast gene YPR048W, cells incubated two hours with the chemical substance) of the same compound?
A: 0.6
